Experimental data: PubChem BioAssay (NCI)
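Each compound was tested at five concentrations against cells in 96-well plates for 48 hours. Here, GI50 denotes the concentration required for 50% inhibition of growth. TGI denotes the concentration required for complete inhibition of growth.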

How the values were obtained:
Assay in all cases: NCI tumour cell line growth inhibition, 48 h
OVCAR-3 ovarian = tested on: OVCAR-3 ovarian
786-0 renal = tested on: 786-0 renal
OVCAR-4 ovarian = tested on: OVCAR-4 ovarian
UACC-257 melanoma = tested on: UACC-257 melanoma
SF-295 CNS = tested on: SF-295 CNS
CAKI-1 renal = tested on: CAKI-1 renal
IGROV1 ovarian = tested on: IGROV1 ovarian
MALME-3M melanoma = tested on: MALME-3M melanoma
UO-31 renal = tested on: UO-31 renal
SF-539 CNS = tested on: SF-539 CNS
U251 CNS = tested on: U251 CNS
K-562 leukemia = tested on: K-562 leukemia
SK-OV-3 ovarian = tested on: SK-OV-3 ovarian
SK-MEL-5 melanoma = tested on: SK-MEL-5 melanoma
UACC-62 melanoma = tested on: UACC-62 melanoma
TK-10 renal = tested on: TK-10 renal
MOLT-4 leukemia = tested on: MOLT-4 leukemia
M14 melanoma = tested on: M14 melanoma
OVCAR-8 ovarian = tested on: OVCAR-8 ovarian
COLO 205 colon = tested on: COLO 205 colon
HOP-92 NSCLC = tested on: HOP-92 NSCLC
HOP-62 NSCLC = tested on: HOP-62 NSCLC
OVCAR-5 ovarian = tested on: OVCAR-5 ovarian
SNB-19 CNS = tested on: SNB-19 CNS
SNB-75 CNS = tested on: SNB-75 CNS
ACHN renal = tested on: ACHN renal

**Q.** Which GI50 (OVCAR-3 ovarian) does the source give for `O=[N+]([O-])c1cc([N+](=O)[O-])c(Cl)cc1Cl` here?
**A.** 1420 nM

**Q.** And the TGI (OVCAR-3 ovarian)?
**A.** 2730 nM

**Q.** What about the GI50 (786-0 renal) of the same compound?
**A.** 1710 nM

**Q.** What about the TGI (786-0 renal) of the same compound?
**A.** 3210 nM

**Q.** And the GI50 (OVCAR-4 ovarian)?
**A.** 1810 nM

**Q.** And the TGI (OVCAR-4 ovarian)?
**A.** 3230 nM

**Q.** And the GI50 (UACC-257 melanoma)?
**A.** 594 nM

**Q.** What about the TGI (UACC-257 melanoma) of the same compound?
**A.** 2040 nM

**Q.** What about the GI50 (SF-295 CNS) of the same compound?
**A.** 1750 nM

**Q.** What about the TGI (SF-295 CNS) of the same compound?
**A.** 3630 nM

**Q.** What about the GI50 (CAKI-1 renal) of the same compound?
**A.** 188 nM

**Q.** And the TGI (CAKI-1 renal)?
**A.** 352 nM

**Q.** What about the GI50 (IGROV1 ovarian) of the same compound?
**A.** 1170 nM

**Q.** And the TGI (IGROV1 ovarian)?
**A.** 2740 nM

**Q.** What about the GI50 (MALME-3M melanoma) of the same compound?
**A.** 2050 nM

**Q.** What about the TGI (MALME-3M melanoma) of the same compound?
**A.** 4270 nM

**Q.** And the GI50 (UO-31 renal)?
**A.** 340 nM

**Q.** What about the TGI (UO-31 renal) of the same compound?
**A.** 1480 nM

**Q.** What about the GI50 (SF-539 CNS) of the same compound?
**A.** 1730 nM

**Q.** What about the TGI (SF-539 CNS) of the same compound?
**A.** 3490 nM

**Q.** What about the GI50 (U251 CNS) of the same compound?
**A.** 211 nM

**Q.** What about the TGI (U251 CNS) of the same compound?
**A.** 476 nM

**Q.** And the GI50 (K-562 leukemia)?
**A.** 249 nM

**Q.** And the TGI (K-562 leukemia)?
**A.** 642 nM

**Q.** And the GI50 (SK-OV-3 ovarian)?
**A.** 1780 nM

**Q.** And the TGI (SK-OV-3 ovarian)?
**A.** 3210 nM

**Q.** What about the GI50 (SK-MEL-5 melanoma) of the same compound?
**A.** 1790 nM

**Q.** What about the TGI (SK-MEL-5 melanoma) of the same compound?
**A.** 3680 nM

**Q.** And the GI50 (UACC-62 melanoma)?
**A.** 1880 nM

**Q.** And the TGI (UACC-62 melanoma)?
**A.** 3820 nM

**Q.** And the GI50 (TK-10 renal)?
**A.** 1650 nM

**Q.** And the TGI (TK-10 renal)?
**A.** 3160 nM

**Q.** And the GI50 (MOLT-4 leukemia)?
**A.** 918 nM

**Q.** What about the TGI (MOLT-4 leukemia) of the same compound?
**A.** 4400 nM

**Q.** And the GI50 (M14 melanoma)?
**A.** 1730 nM

**Q.** What about the TGI (M14 melanoma) of the same compound?
**A.** 3590 nM

**Q.** What about the GI50 (OVCAR-8 ovarian) of the same compound?
**A.** 1270 nM

**Q.** And the TGI (OVCAR-8 ovarian)?
**A.** 2910 nM

**Q.** And the GI50 (COLO 205 colon)?
**A.** 1770 nM

**Q.** And the TGI (COLO 205 colon)?
**A.** 3650 nM

**Q.** What about the GI50 (HOP-92 NSCLC) of the same compound?
**A.** 1590 nM

**Q.** What about the TGI (HOP-92 NSCLC) of the same compound?
**A.** 4110 nM

**Q.** What about the GI50 (HOP-62 NSCLC) of the same compound?
**A.** 1680 nM

**Q.** And the TGI (HOP-62 NSCLC)?
**A.** 3270 nM

**Q.** What about the GI50 (OVCAR-5 ovarian) of the same compound?
**A.** 1780 nM

**Q.** What about the TGI (OVCAR-5 ovarian) of the same compound?
**A.** 3600 nM

**Q.** What about the GI50 (SNB-19 CNS) of the same compound?
**A.** 1950 nM

**Q.** And the TGI (SNB-19 CNS)?
**A.** 3660 nM

**Q.** And the GI50 (SNB-75 CNS)?
**A.** 1510 nM

**Q.** What about the TGI (SNB-75 CNS) of the same compound?
**A.** 2920 nM

**Q.** And the GI50 (ACHN renal)?
**A.** 1620 nM

**Q.** What about the TGI (ACHN renal) of the same compound?
**A.** 3290 nM
